Measurements published in patent US8178579B2, “Dioxanes and uses thereof” (President and Fellows of Harvard College, priority 2001, dated 2012).
“Also recorded” adds a separate entry of the source.

Tests used:
[1] = test system: microtubules in A549 cells; assay: microtubule stability to nocodazole, cold or calcium depolymerization and repolymerization; assay type: cell-based, human; settings: tubacin 2 μM
Method: Detection of acetylated α-tubulin and acetylated histones by immunofluorescence was performed as described in Example 6 above. For determining microtubule stability, A549 cells were treated as indicated, fixed in glutaraldehyde, and stained for acetylated α-tubulin and total α-tubulin in antibody dilution buffer (ADB, Tris-buffered saline (TBS), 0.15 M NaCl, 0.02 M Tris-Cl, pH 7.4, with 2% bovine serum albumin and 0.1% Triton-X 100). For cold-depolymerization, cells were incubated at 4° C. or 37° C. for an additional 90 minutes before fixation. For calcium depolymerization, cells were incubated at 37° C. for 10 minutes in a microtubule-stabilizing buffer (0.2% NP-40, 5 mM MgCl2, 2 mM EGTA, 2 M glycerol, 100 mM PIPES, pH 6.8) with and without the addition of CaCl2 (2 mM) before glutaraldehyde fixation. For co-localization experiments, biotubacin (50 μM) treated A549 cells were fixed in 3.7% formaldehyde in TBS and processed as for detecting acetylated α-tubulin (See Example 6 above) with biotubacin detected using streptavidin-TR (1:500). HDAC6 was detected using a rabbit polyclonal antibody (1:250-1:750; C.M.G., unpublished data) under the conditions used to detect acetylated α-tubulin (See Example 6 above). Filamentous actin in HT-1080 cells was detected using TR-conjugated phalloidin (1 μg/mL), and depolymerized actin using FITC-conjugated deoxyribonuclease (10 μg/mL), following fixation in 3.7% formaldehyde in TBS. p58 (1:100) in NIH-3T3 cells was detected after fixation in 3.7% formaldehyde in TBS. Images for these experiments were collected on a Zeiss LSM510 confocal scanning laser microscope at the appropriate wavelengths using the accompanying software and processed with Adobe Photoshop. Deconvoluted serial images of TSA and DMSO treated A549 cells were obtained by taking sections (8μ) on a Zeiss Axioskop 2 microscope using an AxioCam camera and the accompanying software. Rat hippocampal neuronal cultures were fixed at room temperature for 15 min in phosphate-buffered saline (PBS) containing 4% paraformaldehyde. […]

NIH-3T3 cells = assay: Transwell cell migration assay; assay type: cell-based, mouse; settings: wild-type (Neo) and HDAC6-overexpressing cells, 22 h; tubacin 2-20 μM, niltubacin 20 μM
Method: For Transwell migration assays, wild-type or HDAC6 overexpressing NIH-3T3 cells were seeded (150,000 cells/well) in the upper chamber (uncoated polycarbonate membrane, 6.5 mm, 8 μm) in DMEM+ media with compounds added as indicated. After incubation (22 hours), non-migrated cells were removed using cotton swabs and remaining cells stained in Harris Hematoxylin solution. For each treatment, cells within a region (spanning the maximum diameter) of three separate membranes were counted under low magnification on a Leitz Laborlux microscope. For DMSO treatments the average count was ˜600 cells/region. Images were obtained using a Hitachi HV-C12 CCD camera.

HDAC6 = assay: acetylated α-tubulin and HDAC6 immunofluorescence in control (Neo) and HDAC6-overexpressing fibroblasts; assay type: cell-based, mouse; settings: tubacin 2 μM, 4 h
Method: All cells were cultured at 37° C. in a humidified incubator supplemented with 5% carbon dioxide. […] Mouse NIH-3T3 wild-type (Neo), HDAC6, HDAC6 double mutant, and HDAC1 overexpressing cells (gift from C. Hubbert, Duke University) were cultured as described (C. Hubbert et al., Nature 417, 455 (2002)1).
Detection of acetylated α-tubulin and acetylated histones by immunofluorescence was performed as described in Example 6 above. […] HDAC6 was detected using a rabbit polyclonal antibody (1:250-1:750; C.M.G., unpublished data) under the conditions used to detect acetylated α-tubulin (See Example 6 above). […] Images for these experiments were collected on a Zeiss LSM510 confocal scanning laser microscope at the appropriate wavelengths using the accompanying software and processed with Adobe Photoshop.

α-tubulin = assay: total and tyrosinated α-tubulin levels in cells; assay type: cell-based; settings: tubacin 2 μM, 4 h
Method: Detection of acetylated α-tubulin and acetylated histones by immunofluorescence was performed as described in Example 6 above. For determining microtubule stability, A549 cells were treated as indicated, fixed in glutaraldehyde, and stained for acetylated α-tubulin and total α-tubulin in antibody dilution buffer (ADB, Tris-buffered saline (TBS), 0.15 M NaCl, 0.02 M Tris-Cl, pH 7.4, with 2% bovine serum albumin and 0.1% Triton-X 100). For cold-depolymerization, cells were incubated at 4° C. or 37° C. for an additional 90 minutes before fixation. […] For co-localization experiments, biotubacin (50 μM) treated A549 cells were fixed in 3.7% formaldehyde in TBS and processed as for detecting acetylated α-tubulin (See Example 6 above) with biotubacin detected using streptavidin-TR (1:500). HDAC6 was detected using a rabbit polyclonal antibody (1:250-1:750; C.M.G., unpublished data) under the conditions used to detect acetylated α-tubulin (See Example 6 above). Filamentous actin in HT-1080 cells was detected using TR-conjugated phalloidin (1 μg/mL), and depolymerized actin using FITC-conjugated deoxyribonuclease (10 μg/mL), following fixation in 3.7% formaldehyde in TBS. p58 (1:100) in NIH-3T3 cells was detected after fixation in 3.7% formaldehyde in TBS. […]

O=C(CCCCCCC(=O)Nc1ccc([C@@H]2OC(c3ccc(CO)cc3)C[C@H](CSc3nc(-c4ccccc4)c(-c4ccccc4)o3)O2)cc1)NO (stereo partly shown) [tubacin]
polymerization of microtubules after removal of nocodazole ([1]; ITSA1 50 μM): neither tubacin nor ITSA1 (50 μM; 30 minutes) prevents the repolymerization of microtubules; also recorded: neither tubacin nor ITSA1 prevented the polymerization of microtubules | stability of microtubules to depolymerization ([1]; nocodazole 332 nM, cold 4 °C 90 min, or 2 mM CaCl2): No effect of tubacin (2 μM) pre-treatment (4 h) on the stability of microtubules to nocodazole; also recorded: Microtubule depolymerization by nocodazole (332 nM; 5 h) is dominant to the effects of tubacin; also recorded: No effect of tubacin on the stability of microtubules to cold-depolymerization; also recorded: no stabilization of microtubules to any of the depolymerizing conditions tested | cell migration (NIH-3T3 cells): inhibited the migration of wild-type (Neo) NIH-3T3 cells; also recorded: inhibited the migration of both wild-type and HDAC6-overexpressing cells | co-localization of HDAC6 with acetylated microtubules (HDAC6; NIH-3T3 (Neo)): Increased co-localization of HDAC6 with acetylated α-tubulin; also recorded: caused an increase in the co-localization of HDAC6 along acetylated microtubules | α-tubulin acetylation in control (Neo) versus HDAC6-overexpressing NIH-3T3 cells (HDAC6): Decreased α-tubulin acetylation upon tubacin (2 μM) treatment (4 h) of HDAC6 overexpressing compared to control (Neo) NIH-3T3 cells; also recorded: induced an increase in α-tubulin acetylation; also recorded: decreased tubucin-induced α-tubulin acetylation | level of total α-tubulin (α-tubulin): No effect of tubacin (2 μM) treatment (4 h) on the levels of α-tubulin; also recorded: did not affect the level of total α-tubulin or the level of α-tubulin containing a carboxy-terminal tyrosine | level of tyrosinated α-tubulin (α-tubulin): No effect of tubacin (2 μM) treatment (4 h) on the levels of tyrosinated tubulin; also recorded: did not affect the level of total α-tubulin or the level of α-tubulin containing a carboxy-terminal tyrosine
